Measured values published in patent US20230227511A1, “THERAPEUTIC OR […] FOR INFECTIOUS DISEASE” (NIPPON MEDICAL SCHOOL FOUNDATION, priority 2020, published 2023).

How the values were obtained:
sepsis mouse models = experiment: Administration of the 50-amino acid peptide (PTX3N50) to sepsis mouse models; type: in vivo; conditions: peptide not fused to Fc
[1] = system: vascular endothelial cells; conditions: Patent Document 1; cited from earlier work

**Q.** What does the source list for “PTX3N50: 50-amino acid peptide on the N-terminal side of PTX3, not fused to Fc (ENSDDYDLMYVNLDNEIDNGLHPTEDPTPCACGQEHSEWDKLFIMLENSQ; UniProt P26022 18-67, looked up, fragment)”?
**A.** survival percentage of the sepsis mouse models (sepsis mouse models): could not improve the survival percentage; action to suppress histone cytotoxicity against vascular endothelial cells [1]: has an action to suppress histone cytotoxicity
